Results on 1 compound are retold here after patent US11939361B2, “Compositions of peptide inhibitors of Interleukin-23 receptor” (Janssen Pharmaceutica NV, priority 2020, dated 2024).

Data set [1] can be described thus: Colon and colonic content concentrations in rat TNBS colitis model (LC-MS/MS). Format: in vivo, Sprague Dawley rats. The conditions noted are these: Sprague Dawley, po. On the procedure:
[…] In all studies, the peptide of SEQ ID NO: 1 was dosed starting 2 days prior to TNBS induction through day 6, with euthanasia scheduled on day 7.
At the end of each study, colonic content and colon tissue samples were collected from each animal and analyzed for drug concentrations by LC-MS/MS.

Data set [2] relates to IL-23 induced IFNγ production. The data set can be described thus: Ex vivo whole blood IL-23-induced IFNγ production assay, FIH MAD cohorts. It is filed as in vivo. Here is the method:
An ex vivo whole blood IL-23 induced IFNγ assay was used to evaluate the systemic pharmacodynamic activity of the orally administered peptide of SEQ ID NO: 1 in the first-in-human study. […] On Days 1 and 10, when the assay was performed, subjects received their dose of placebo or peptide of SEQ ID NO: 1 following an overnight fast of approximately 10 hours and remained fasted for approximately 4 hours following dosing. After oral dosing on days 1 and 10, whole blood from the subjects was stimulated ex vivo with either IL-2 (10 ng/mL) and IL-18 (20 ng/mL) or IL-2 (10 ng/mL), IL-18 (20 ng/mL), and IL-23 (0.5 ng/mL) in TruCulture™ tubes (Rules Based Medicine, Q^2 solutions company) for stimulation of IFNγ production. The production of IFNγ is expected to be suppressed if IL-23R signaling is inhibited. Therefore, lower IFNγ production in the assay is associated with sufficient exposure to achieve systemic pharmacodynamic (PD) activity of orally dosed peptide of SEQ ID NO: 1.
Whole blood was collected in TruCulture™ tubes according to manufacturer instructions, the tubes were incubated at 37° C. in a block thermostat for 24 hours (±1 hour). Following incubation at 37° C., supernatants were harvested according to TruCultube™ tube manufacturer instructions (Rules Based Medicine, Q^2 solutions company). An ELISA assay was used to quantify the levels of IFNg in the supernatants.

The conditions of data set [3]: in vivo.
Data set [4] concerns IL-23-induced IL-17A secretion. The data set can be described thus: In vitro rat whole blood assay of IL-23-induced IL-17A secretion. It is filed as cell-based.
Data set [5] relates to IL-23 induced phosphorylation of STAT3. The data set can be described thus: Ex vivo whole blood phosphorylation of STAT3 assay, FIH 25 mg MAD cohort. Format: in vivo. The conditions noted are these: human, 25 mg oral once a day, 3 subjects, 100 ng/mL IL-23. Here is the method:
An ex vivo whole blood IL-23 induced STAT3 phosphorylation assay was also used to evaluate the systemic pharmacodynamic activity of the orally administered peptide of SEQ ID NO: 1 in the first-in-human study. This proximal IL-23R signaling assay was performed by analyzing IL-23 induced phosphorylation of STAT3 using a flow cytometer. Assay was implemented in the 25 mg MAD cohort, at multiple timepoints on Day 1 and Day 10, where healthy volunteers were given placebo or 25 mg of peptide of SEQ ID NO: 1 orally once a day for 10 consecutive days. On Days 1 and 10, when the assay was performed, subjects received their dose of placebo or peptide of SEQ ID NO: 1 following an overnight fast of approximately 10 hours and remained fasted for approximately 4 hours following dosing. […] Therefore, lower STAT3 phosphorylation as readout by the assay is associated with sufficient exposure to achieve systemic pharmacodynamic activity of orally dosed peptide of SEQ ID NO: 1. Since there is no dilution of blood required, and the readout is more proximal than IFNγ production, and the response is measured in the specific subset of immune cells that respond to IL-23, the pSTAT3 assay is a more sensitive pharmacodynamic readout than IFNγ. […]

Setting [6] is: human, 25 mg, 100 mg, 300 mg and 1000 mg cohorts, oral once a day.

Where “and” joins values, the source holds several entries; their conditions need not be identical. Equal entries are not always repeated. Where two headings read alike, the source gives them in different places.

For `CC(=O)NCCCC[C@@H]1NC(=O)[C@H](Cc2c[nH]c3c(C)cccc23)NC(=O)[C@H]([C@@H](C)O)NC(=O)[C@H](CC(N)=O)NC(=O)[C@@H](NC(C)=O)C(C)(C)SSC(C)(C)[C@@H](C(=O)N[C@@H](Cc2ccc(OCCN)cc2)C(=O)N[C@@H](Cc2ccc3ccccc3c2)C(=O)NC2(C(=O)N[C@@H](CCC(=O)O)C(=O)N[C@@H](CC(N)=O)C(=O)N[C@@H](Cc3cccnc3)C(=O)N(C)CC(N)=O)CCOCC2)NC1=O` [SEQ ID NO: 1, Ac-[Pen]*—N-T-[W(7-Me)]-[Lys(Ac)]-[Pen]*-Phe[4-(2-aminoethoxy)]-[2-Nal]-[THP]-E-N-[3-Pal]-Sarc-NH2], the tissue level at time at 168 h in data set [1] (colon content, 0.033 mg/kg, Study 3, 0.033 mg/kg TID oral, total daily dose 0.1 mg/kg, read-out: Mean concentration in Colon content) came out at 567 ng/g; in data set [1] (colon content, 0.1 mg/kg, Study 2, 0.1 mg/kg TID oral, total daily dose 0.3 mg/kg, read-out: Mean concentration in Colon content) it was 1990 ng/g; in data set [1] (colon content, 0.1 mg/kg, Study 3, 0.1 mg/kg TID oral, total daily dose 0.3 mg/kg, read-out: Mean concentration in Colon content), 3180 ng/g; in data set [1] (colon content, 0.33 mg/kg, Study 2, 0.33 mg/kg TID oral, total daily dose 1 mg/kg, read-out: Mean concentration in Colon content), 7440 ng/g; in data set [1] (colon content, 0.33 mg/kg, Study 3, 0.33 mg/kg TID oral, total daily dose 1 mg/kg, read-out: Mean concentration in Colon content), 6050 ng/g; in data set [1] (colon content, 0.5 mg/kg, Study 2, 0.5 mg/kg BID oral, total daily dose 1 mg/kg, read-out: Mean concentration in Colon content) it was 11200 ng/g. For the same compound, the tissue level at time at 168 h came to 11700 ng/g in data set [1] (colon content, 1 mg/kg, Study 2, 1 mg/kg QD oral, total daily dose 1 mg/kg, read-out: Mean concentration in Colon content); 22200 ng/g in data set [1] (colon content, 1 mg/kg, Study 2, 1 mg/kg TID oral, total daily dose 3 mg/kg, read-out: Mean concentration in Colon content); 20800 ng/g in data set [1] (colon content, 1 mg/kg, Study 3, 1 mg/kg TID oral, total daily dose 3 mg/kg, read-out: Mean concentration in Colon content); 73500 ng/g in data set [1] (colon content, 3.3 mg/kg, Study 2, 3.3 mg/kg TID oral, total daily dose 10 mg/kg, read-out: Mean concentration in Colon content); 44.4 ng/g in data set [1] (colon, 0.1 mg/kg, Study 3, 0.1 mg/kg TID oral, total daily dose 0.3 mg/kg, read-out: Mean concentration in Colon); 158 ng/g in data set [1] (colon, 0.33 mg/kg, Study 3, 0.33 mg/kg TID oral, total daily dose 1 mg/kg, read-out: Mean concentration in Colon). Besides, the tissue level at time at 168 h in data set [1] (colon, 1 mg/kg, Study 3, 1 mg/kg TID oral, total daily dose 3 mg/kg, read-out: Mean concentration in Colon) is 509 ng/g. In data set [2] (10-1000 mg oral once a day, Day 1 and Day 10), the “inhibition of IL-23 stimulated IFNγ production in human whole blood” value was “dose dependent inhibition”. The “maximum inhibition of IL-23 induced IFNγ production (mean systemic PD activity)” value in data set [2] (setting [6]) is reported as around 100%. In data set [2] (setting [6]), the “time for which >50% inhibition of IFNγ production was maintained” value is at least 8 h. Moreover, the “mean accumulation for AUC” value in data set [3] (human) is given as 13-50%. Moreover, in data set [3], the “Systemic exposure (Cmax and AUC) versus dose” value is “approximately dose-proportional”. For the same compound, the IC50 was 0.012 nM and 0.027 nM and 0.045 nM and 0.013 nM and 0.06 nM and 0.066 nM in data set [4] (read-out: IC50 at 4 ng/mL IL-23 stimulation, individual vehicle-dosed rats, plus 4 ng/mL IL-1β, listed as peptide of SEQ ID NO: 1); 0.1 nM and 0.11 nM in data set [4] (read-out: IC50 at 4 ng/mL IL-23 stimulation, pooled blood (n = 6 naïve rats), plus 4 ng/mL IL-1β, listed as peptide of SEQ ID NO: 1); 0.24 nM and 0.16 nM and 0.22 nM and 0.23 nM and 0.34 nM and 0.29 nM in data set [4] (read-out: IC50 at 20 ng/mL IL-23 stimulation, individual vehicle-dosed rats, listed as peptide of SEQ ID NO: 1); 0.054 ± 0.034 nM in data set [4] (read-out: Mean IC50 at 4 ng/mL IL-23 stimulation, in vitro rat whole blood, mean of all experiments); 0.25 ± 0.062 nM in data set [4] (read-out: Mean IC50 at 20 ng/mL IL-23 stimulation, in vitro rat whole blood, n=6 rats). Moreover, the “inhibition of STAT3 phosphorylation in memory CD26high CD4+ T cells, memory CD26high CD8+ T cells and CD26high NKT cells” value in data set [5] is on record as “near-complete inhibition”.
